The supplement of paper PMC3937590

Columns and labels:
Test in all cases: -log10 GI50 (growth inhibition 50%) (-log10(M)); higher = more potent growth inhibition
LY2 = test system: LY2
Procedure, shortened: (§1)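 A value carrying a < qualifier equals the top dose tested. Each compound was tested in triplicate on breast cancer cell lines for 72 hours at nine doses in 1:5 serial dilution, using a luminescence read-out against a time-zero plate. Nonlinear least squares fitting of a Gompertz curve gave GI50, the molar concentration causing the set level of growth inhibition, which is reported as its negative logarithm. The logarithm is base 10.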

BT483 = test system: BT483
Procedure, shortened: as §1

184B5 = test system: 184B5
Procedure, shortened: as §1

HCC70 = test system: HCC70
Procedure, shortened: as §1

600MPE = test system: 600MPE
Procedure, shortened: as §1

MDAMB231 = test system: MDAMB231
Procedure, shortened: as §1

BT549 = test system: BT549
Procedure, shortened: as §1

SUM225CWN = test system: SUM225CWN
Procedure, shortened: as §1

MDAMB453 = test system: MDAMB453
Procedure, shortened: as §1

MX1 = test system: MX1
Procedure, shortened: as §1

MCF7 = test system: MCF7
Procedure, shortened: as §1

HCC2185 = test system: HCC2185
Procedure, shortened: as §1

CAMA1 = test system: CAMA1
Procedure, shortened: as §1

T47D_KBluc = test system: T47D_KBluc
Procedure, shortened: as §1

SKBR3 = test system: SKBR3
Procedure, shortened: as §1

HCC202 = test system: HCC202
Procedure, shortened: as §1

HCC1569 = test system: HCC1569
Procedure, shortened: as §1

SUM229PE = test system: SUM229PE
Procedure, shortened: as §1

HCC1954 = test system: HCC1954
Procedure, shortened: as §1

HCC1806 = test system: HCC1806
Procedure, shortened: as §1

AU565 = test system: AU565
Procedure, shortened: as §1

SUM185PE = test system: SUM185PE
Procedure, shortened: as §1

MDAMB175VII = test system: MDAMB175VII
Procedure, shortened: as §1

MDAMB361 = test system: MDAMB361
Procedure, shortened: as §1

HCC1143 = test system: HCC1143
Procedure, shortened: as §1

HCC1937 = test system: HCC1937
Procedure, shortened: as §1

MDAMB134VI = test system: MDAMB134VI
Procedure, shortened: as §1

MCF10A = test system: MCF10A
Procedure, shortened: as §1

BT474 = test system: BT474
Procedure, shortened: as §1

HS578T = test system: HS578T
Procedure, shortened: as §1

MCF12A = test system: MCF12A
Procedure, shortened: as §1

SUM159PT = test system: SUM159PT
Procedure, shortened: as §1

BT20 = test system: BT20
Procedure, shortened: as §1

HCC1428 = test system: HCC1428
Procedure, shortened: as §1

ZR75B = test system: ZR75B
Procedure, shortened: as §1

184A1 = test system: 184A1
Procedure, shortened: as §1

UACC812 = test system: UACC812
Procedure, shortened: as §1

HCC1187 = test system: HCC1187
Procedure, shortened: as §1

SUM1315MO2 = test system: SUM1315MO2
Procedure, shortened: as §1

HCC1395 = test system: HCC1395
Procedure, shortened: as §1

MDAMB415 = test system: MDAMB415
Procedure, shortened: as §1

HCC1419 = test system: HCC1419
Procedure, shortened: as §1

HCC3153 = test system: HCC3153
Procedure, shortened: as §1

SUM52PE = test system: SUM52PE
Procedure, shortened: as §1

ZR751 = test system: ZR751
Procedure, shortened: as §1

MDAMB157 = test system: MDAMB157
Procedure, shortened: as §1

MCF10F = test system: MCF10F
Procedure, shortened: as §1

HCC38 = test system: HCC38
Procedure, shortened: as §1

SUM149PT = test system: SUM149PT
Procedure, shortened: as §1

T47D = test system: T47D
Procedure, shortened: as §1

HBL100 = test system: HBL100
Procedure, shortened: as §1

CCNCCCCNCCCCNCCCCNCCCCNC/C=C/CNCCCCNCCCCNCCCCNCCCCNCC
-log10 GI50 (LY2): 5.18 | -log10 GI50 (BT483): 6.25 | -log10 GI50 (184B5): 5.62 | -log10 GI50 (HCC70): 6.55 | -log10 GI50 (600MPE): 6.49 | -log10 GI50 (MDAMB231): 4.67 | -log10 GI50 (BT549): 6.53 | -log10 GI50 (SUM225CWN): 5.49 | -log10 GI50 (MDAMB453): 6.28 | -log10 GI50 (MX1): 6.57 | -log10 GI50 (MCF7): 6.33 | -log10 GI50 (HCC2185): 6.6 | -log10 GI50 (CAMA1): 6.43 | -log10 GI50 (T47D_KBluc): 6.46 | -log10 GI50 (SKBR3): 5.31 | -log10 GI50 (HCC202): 6.28 | -log10 GI50 (HCC1569): 4.74 | -log10 GI50 (SUM229PE): 6.24 | -log10 GI50 (HCC1954): 6.57 | -log10 GI50 (HCC1806): 6.71 | -log10 GI50 (AU565): 6.31 | -log10 GI50 (SUM185PE): 6.68 | -log10 GI50 (MDAMB175VII): 6.79 | -log10 GI50 (MDAMB361): 5.78 | -log10 GI50 (HCC1143): 6.88 | -log10 GI50 (HCC1937): 4.95 | -log10 GI50 (MDAMB134VI): 6.38 | -log10 GI50 (MCF10A): 5.9 | -log10 GI50 (BT474): 6.02 | -log10 GI50 (HS578T): 4.93 | -log10 GI50 (MCF12A): 6.2 | -log10 GI50 (SUM159PT): 6.6 | -log10 GI50 (BT20): 6.66 | -log10 GI50 (HCC1428): 6.33 | -log10 GI50 (ZR75B): 6.38 | -log10 GI50 (184A1): 6.32 | -log10 GI50 (UACC812): 6.78 | -log10 GI50 (HCC1187): 6.15 | -log10 GI50 (SUM1315MO2): 5.69 | -log10 GI50 (HCC1395): 6.3 | -log10 GI50 (MDAMB415): 6.63 | -log10 GI50 (HCC1419): 6.51 | -log10 GI50 (HCC3153): 6.72 | -log10 GI50 (SUM52PE): 6.81 | -log10 GI50 (ZR751): 6.82 | -log10 GI50 (MDAMB157): 6.97 | -log10 GI50 (MCF10F): 5.96 | -log10 GI50 (HCC38): 6.81 | -log10 GI50 (SUM149PT): 6.53 | -log10 GI50 (T47D): 6.97

COc1cc([C@@H]2c3cc4c(cc3[C@@H](O[C@@H]3O[C@@H]5CO[C@@H](C)O[C@H]5[C@H](O)[C@H]3O)[C@H]3COC(=O)[C@H]23)OCO4)cc(OC)c1O [Etoposide]
-log10 GI50 (LY2): < 3.48 | -log10 GI50 (BT483): 5.37 | -log10 GI50 (184B5): 5.06 | -log10 GI50 (HCC70): 4.89 | -log10 GI50 (600MPE): 5.26 | -log10 GI50 (MDAMB231): 5.69 | -log10 GI50 (BT549): 5.89 | -log10 GI50 (SUM225CWN): 4.99 | -log10 GI50 (MDAMB453): 5.3 | -log10 GI50 (MX1): 6.34 | -log10 GI50 (MCF7): 5.13 | -log10 GI50 (HCC2185): 5.11 | -log10 GI50 (CAMA1): 5.31 | -log10 GI50 (T47D_KBluc): 5.79 | -log10 GI50 (SKBR3): 5.92 | -log10 GI50 (HCC202): 6.03 | -log10 GI50 (HCC1569): 4.2 | -log10 GI50 (SUM229PE): 6.04 | -log10 GI50 (HCC1954): 6.01 | -log10 GI50 (HCC1806): 5.51 | -log10 GI50 (AU565): 6.2 | -log10 GI50 (SUM185PE): 5.31 | -log10 GI50 (MDAMB175VII): 4.19 | -log10 GI50 (MDAMB361): 4.85 | -log10 GI50 (HCC1143): 5.29 | -log10 GI50 (HCC1937): 5.34 | -log10 GI50 (MDAMB134VI): 5.61 | -log10 GI50 (MCF10A): 5.43 | -log10 GI50 (BT474): 4.63 | -log10 GI50 (HS578T): 5.22 | -log10 GI50 (MCF12A): 6.44 | -log10 GI50 (SUM159PT): 6.11 | -log10 GI50 (BT20): 5.48 | -log10 GI50 (HCC1428): 4.47 | -log10 GI50 (ZR75B): 6.06 | -log10 GI50 (184A1): 5.08 | -log10 GI50 (HBL100): 5.67 | -log10 GI50 (HCC1187): 6.21 | -log10 GI50 (SUM1315MO2): 6.61 | -log10 GI50 (HCC1395): 5.53 | -log10 GI50 (MDAMB415): 4.56 | -log10 GI50 (HCC1419): 4.18 | -log10 GI50 (HCC3153): 5.57 | -log10 GI50 (SUM52PE): 5.59 | -log10 GI50 (ZR751): 5.68 | -log10 GI50 (MDAMB157): 6.02 | -log10 GI50 (MCF10F): 6.13 | -log10 GI50 (HCC38): 6.54 | -log10 GI50 (SUM149PT): 5.58 | -log10 GI50 (T47D): 5.99
